# Data taken from ChEMBL document CHEMBL5608180, “DNA G-quadruplexes in the genome of Trypanosoma cruzi as potential therapeutic targets for Chagas disease: Dithienylethene ligands as effective antiparasitic agents” (Eur J Med Chem, 2024).
# Activity calls are given as the source filed them. The calls are words filed in the database; no cut-off is given here.
# How the values were obtained:
# [1] = Selectivity index, ratio of IC50 for cytotoxicity against human MRC5 cells to IC50 for antiparasitic activity against epimastigote form of Trypanosoma cruzi SOL (TcV); format: toxicity, cell-based; details: read-out: Ratio IC50
# [2] = Cytotoxicity against human MRC5 cells; format: toxicity, cell-based
# [3] = Selectivity index, ratio of IC50 for cytotoxicity against human MRC5 cells to IC50 for antiparasitic activity against epimastigote form of Trypanosoma cruzi BM Lopez (TcIa); format: toxicity, cell-based; details: read-out: Ratio IC50
# [4] = Selectivity index, ratio of IC50 for cytotoxicity against human MRC5 cells to IC50 for antiparasitic activity against epimastigote form of Trypanosoma cruzi DA (TcI); format: toxicity, cell-based; details: read-out: Ratio IC50
# [5] = Selectivity index, ratio of IC50 for cytotoxicity against human MRC5 cells to IC50 for antiparasitic activity against epimastigote form of Trypanosoma cruzi Y (TcII); format: toxicity, cell-based; details: read-out: Ratio IC50
# Trypanosoma cruzi [6] = assay: Antiparasitic activity against epimastigote form of Trypanosoma cruzi Y(TcII) assessed as inhibition of parasite growth incubated for 96 hrs followed by incubation with resazurin for 4 to 6 hrs by resazurin dye based fluorescence analysis; format: functional, organism-based
# Trypanosoma cruzi [7] = assay: Antiparasitic activity against epimastigote form of Trypanosoma cruzi BM Lopez (TcIa) assessed as inhibition of parasite growth incubated for 96 hrs followed by incubation with resazurin for 4 to 6 hrs by resazurin dye based fluorescence analysis; format: functional, organism-based
# Trypanosoma cruzi [8] = assay: Antiparasitic activity against epimastigote form of Trypanosoma cruzi SOL(TcV) assessed as inhibition of parasite growth incubated for 96 hrs followed by incubation in dark with resazurin for 4 to 6 hrs by resazurin dye based fluorescence analysis; format: functional, organism-based
# Trypanosoma cruzi [9] = assay: Antiparasitic activity against epimastigote form of Trypanosoma cruzi DA (TcI) assessed as inhibition of parasite growth incubated for 96 hrs followed by incubation with resazurin for 4 to 6 hrs by resazurin dye based fluorescence analysis; format: functional, organism-based
# Trypanosoma cruzi [10] = assay: Antiparasitic activity against trypomastigote form of Trypanosoma cruzi SOL (MHOM/ES/2008/SOL; DTU V) assessed as inhibition of parasite growth incubated for 96 hrs followed by incubation in dark with resazurin for 4 to 6 hrs by resazurin dye based fluorescence analysis; format: functional, organism-based
# [11] = Selectivity index, ratio of IC50 for cytotoxicity against human MRC5 cells to IC50 for antiparasitic activity against trypomastigote form of Trypanosoma cruzi SOL (TcV); format: toxicity, cell-based; details: read-out: Ratio IC50
# dsDNA [12] = assay: Binding affinity to human duplex FdxT DNA (FAM-5'-TATAGCTAT-peg-TATAGCTATA-3'-TAMRA) at 5 uM by FRET melting analysis; format: nucleic-acid assay
# Quadruplex DNA [13] = assay: Binding affinity to Trypanosoma cruzi G-quadruplex TCr DNA (FAM-5'-GGGAGGGACGGATGGGCAGAAACGGG-3'-TAMRA) assessed as broadening of imino proton signals at 1 equiv. by 1H-NMR analysis; format: nucleic-acid assay
# Quadruplex DNA [14] = assay: Binding affinity to Trypanosoma cruzi G-quadruplex RCr DNA (FAM-5'-GGGGACGGGAATGGGGGTGCATGAGGGG-3'-TAMRA) assessed as increase in melting temperature at DNA:compound concentration ratio of 1:2 by CD melting assay; format: nucleic-acid assay
# Quadruplex DNA [15] = assay: Stabilization of Trypanosoma cruzi G-quadruplex RCr DNA (FAM-5'-GGGGACGGGAATGGGGGTGCATGAGGGG-3'-TAMRA) at 5 uM in presence of 1 to 10 uM double stranded ds26 DNA by FRET melting analysis; format: nucleic-acid assay
# Quadruplex DNA [16] = assay: Stabilization of human proto-oncogene G-quadruplex MYC DNA (FAM-5'-TTGAGGGTGGGTAGGGTGGGTAA-3'-TAMRA) assessed as change in apparent melting temperature at 5 uM by FRET melting analysis; format: nucleic-acid assay
# Quadruplex DNA [17] = assay: Stabilization of Trypanosoma cruzi G-quadruplex MCr DNA (FAM-5'-GTGGAGGGGGAGGGTCATGGGG-3'-TAMRA) assessed as change in apparent melting temperature at 5 uM by FRET melting analysis; format: nucleic-acid assay
# dsDNA [18] = assay: Binding affinity to double stranded ds26 DNA (unknown origin) assessed as decrease in absorbance with shift to lower wavelength at 30 uM by UV-Vis spectrophotometric analysis; format: nucleic-acid assay
# Quadruplex DNA [19] = assay: Stabilization of Trypanosoma cruzi G-quadruplex RCr DNA (FAM-5'-GGGGACGGGAATGGGGGTGCATGAGGGG-3'-TAMRA) at 10 uM by FRET melting analysis; format: nucleic-acid assay
# Quadruplex DNA [20] = assay: Binding affinity to Trypanosoma cruzi G-quadruplex MCr DNA (FAM-5'-GTGGAGGGGGAGGGTCATGGGG-3'-TAMRA) assessed as decrease in absorption with shift to higher wavelength at 30 uM by UV-Vis spectrophotometric analysis; format: nucleic-acid assay
# Trypanosoma cruzi [21] = assay: Potency index, ratio of Benznidazole IC50 to test compound IC50 for antiparasitic activity against trypomastigote form of Trypanosoma cruzi SOL (MHOM/ES/2008/SOL; DTU V) by resazurin dye based fluorescence analysis; format: functional
# Quadruplex DNA [22] = assay: Stabilization of Trypanosoma cruzi G-quadruplex RCr DNA (FAM-5'-GGGGACGGGAATGGGGGTGCATGAGGGG-3'-TAMRA) assessed as change in apparent melting temperature at 5 uM by FRET melting analysis; format: nucleic-acid assay
# Quadruplex DNA [23] = assay: Stabilization of human telomere G-quadruplex F21T DNA (FAM-5'-GGGTTAGGGTTAGGGTTAGGG-3'-TAMRA) assessed as change in apparent melting temperature at 5 uM by FRET melting analysis; format: nucleic-acid assay
# Quadruplex DNA [24] = assay: Binding affinity to Trypanosoma cruzi G-quadruplex RCr DNA (FAM-5'-GGGGACGGGAATGGGGGTGCATGAGGGG-3'-TAMRA) assessed as decrease in absorption with shift to higher wavelength at 30 uM by UV-Vis spectrophotometric analysis; format: nucleic-acid assay
# Quadruplex DNA [25] = assay: Binding affinity to Trypanosoma cruzi G-quadruplex MCr DNA (FAM-5'-GTGGAGGGGGAGGGTCATGGGG-3'-TAMRA) assessed as broadening of imino proton signals at 1 equiv. by 1H-NMR analysis; format: nucleic-acid assay
# Quadruplex DNA [26] = assay: Stabilization of Trypanosoma cruzi G-quadruplex TCr DNA (FAM-5'-GGGAGGGACGGATGGGCAGAAACGGG-3'-TAMRA) assessed as change in apparent melting temperature at 5 uM by FRET melting analysis; format: nucleic-acid assay
# Quadruplex DNA [27] = assay: Binding affinity to Trypanosoma cruzi G-quadruplex MCr DNA (FAM-5'-GTGGAGGGGGAGGGTCATGGGG-3'-TAMRA) at DNA:compound concentration ratio of 1:1 to 1:2 by CD melting assay; format: nucleic-acid assay
# Quadruplex DNA [28] = assay: Binding affinity to Trypanosoma cruzi G-quadruplex RCr DNA (FAM-5'-GGGGACGGGAATGGGGGTGCATGAGGGG-3'-TAMRA) assessed as broadening of imino proton signals with delta shift at 1 equiv. by 1H-NMR analysis; format: nucleic-acid assay
# Quadruplex DNA [29] = assay: Stabilization of human telomere G-quadruplex F21T DNA (FAM-5'-GGGTTAGGGTTAGGGTTAGGG-3'-TAMRA) at 5 uM in presence of 1 to 10 uM double stranded ds26 DNA by FRET melting analysis; format: nucleic-acid assay
SMILES,selectivity ratio [1],IC50 [2] [µM],selectivity ratio [3],selectivity ratio [4],selectivity ratio [5],IC50 (Trypanosoma cruzi [6]) [µM],IC50 (Trypanosoma cruzi [7]) [µM],IC50 (Trypanosoma cruzi [8]) [µM],IC50 (Trypanosoma cruzi [9]) [µM],further results
C[C@]12SC(c3ccc(N4CCNCC4)cc3)=CC1=C1CCCC1=C1C=C(c3ccc(N4CCNCC4)cc3)S[C@@]12C,< 1,4.3,< 1,< 1,< 1,> 50,> 50,> 50,32,
O=C(Cn1ccnc1[N+](=O)[O-])NCc1ccccc1 [BENZNIDAZOLE],4.2,47.2,7.5,,2.3,20.3,6.3,11.2,,IC50 (Trypanosoma cruzi [10]): 57.1 µM; selectivity ratio [11]: < 1
Cc1sc(-c2ccc(CN3CCCC3)cc2)cc1C1=C(c2cc(-c3ccc(CN4CCCC4)cc3)sc2C)CCC1,< 1,7.2,1.6,1.2,1.1,6.6,4.6,9.75,6.1,
Cc1sc(-c2ccc(-c3cc[n+](C)cc3)cc2)cc1C1=C(c2cc(-c3ccc(-c4cc[n+](C)cc4)cc3)sc2C)CCC1,< 1,2.2,< 1,< 1,< 1,14,25.2,37.1,28.4,
C[C@]12SC(c3ccc(-c4ccncc4)cc3)=CC1=C1CCCC1=C1C=C(c3ccc(-c4ccncc4)cc3)S[C@@]12C,< 1,4.9,< 1,< 1,< 1,42.8,60.1,> 50,36.6,
C[C@]12SC(c3ccc(CN4CCCC4)cc3)=CC1=C1CCCC1=C1C=C(c3ccc(CN4CCCC4)cc3)S[C@@]12C,< 1,22.5,< 1,< 1,< 1,> 34,> 50,> 50,40.1,
Cc1sc(-c2ccc(CCN(C)C)cc2)cc1C1=C(c2cc(-c3ccc(CCN(C)C)cc3)sc2C)CCC1,< 1,2.6,< 1,< 1,< 1,3.6,4,3.8,2.7,
Cc1sc(-c2ccc(CC[N+](C)(C)C)cc2)cc1C1=C(c2cc(-c3ccc(CC[N+](C)(C)C)cc3)sc2C)CCC1,< 1,2.7,< 1,< 1,< 1,14.2,19.1,21.2,6.8,
Cc1sc(-c2cc[n+](C)cc2)cc1C1=C(c2cc(-c3cc[n+](C)cc3)sc2C)CCC1,< 1,2.4,< 1,< 1,< 1,23.1,> 28.6,> 27.4,> 28.2,
Cc1sc(-c2ccc(N3CCNCC3)cc2)cc1C1=C(c2cc(-c3ccc(N4CCNCC4)cc3)sc2C)CCC1,< 1,8,< 1,< 1,< 1,29.5,29.8,30.8,13.9,
C[C@]12SC(c3ccc4cccnc4c3)=CC1=C1CCCC1=C1C=C(c3ccc4cccnc4c3)S[C@@]12C,3.7,82.5,2,4,3.9,20.9,40.7,22.3,20.6,Activity (dsDNA [12]): inactive; Activity (Quadruplex DNA [13]): Active; ΔTm (Quadruplex DNA [14]): 3.81 °C; IC50 (Trypanosoma cruzi [10]): 3.3 µM; Activity (Quadruplex DNA [15]): Active; ΔTm (Quadruplex DNA [16]): 17 °C; ΔTm (Quadruplex DNA [17]): 14 °C; selectivity ratio [11]: 25; Activity (dsDNA [18]): inactive; Activity (Quadruplex DNA [19]): Active; Activity (Quadruplex DNA [20]): Active; Ratio IC50 (Trypanosoma cruzi [21]): 17; ΔTm (Quadruplex DNA [22]): 17 °C; ΔTm (Quadruplex DNA [23]): 17 °C; Activity (Quadruplex DNA [24]): Active; Activity (Quadruplex DNA [25]): Active; ΔTm (Quadruplex DNA [26]): 17 °C; Activity (Quadruplex DNA [27]): Active; Activity (Quadruplex DNA [28]): Active; Activity (Quadruplex DNA [29]): Active
Cc1sc(-c2cccc3c2ccc[n+]3C)cc1C1=C(c2cc(-c3cccc4c3ccc[n+]4C)sc2C)CCC1,1,20.5,< 1,1.4,< 1,22.8,22.7,20.4,14.4,
CN(C)c1ccc(Nc2c3ccc(NC(=O)CCN4CCCC4)cc3nc3cc(NC(=O)CCN4CCCC4)ccc23)cc1,< 1,,< 1,< 1,< 1,> 100,49.4,> 100,47.5,
C[C@]12SC(c3ccncc3)=CC1=C1CCCC1=C1C=C(c3ccncc3)S[C@@]12C,< 1,3.3,< 1,< 1,< 1,13.9,> 25.6,> 18.3,30.2,
NCCOc1cc(C(=O)Nc2cc(OCCN)c3ccccc3n2)nc(C(=O)Nc2cc(OCCN)c3ccccc3n2)c1 [PYRIDOSTATIN],< 1,,< 1,< 1,< 1,> 100,> 100,> 100,> 100,
CN(C)CCc1ccc(C2=CC3=C4CCCC4=C4C=C(c5ccc(CCN(C)C)cc5)S[C@]4(C)[C@@]3(C)S2)cc1,< 1,6.1,< 1,< 1,< 1,31.1,> 48.4,45.1,13.4,
